Test results taken from US7947664B2, “Angiotensin II receptor antagonists” (Merck Sharp & Dohme Corp., priority 2008, dated 2011).

System: isolated rabbit thoracic aorta preparations
Test: Vessel relaxation in isolated rabbit thoracic aorta preparations
Details: Oryctolagus cuniculus; in vitro, rabbit aortic rings precontracted with noradrenaline (1 μM), functional endothelium
Protocol: The ability of the compounds to induce vasorelaxation was tested in vitro in isolated rabbit thoracic aorta preparations (Wanstall J. C. et al., Br. J. Pharmacol., 134:463-472, 2001). Male New Zealand rabbits were anaesthetized with thiopental-Na (50 mg/kg, iv), sacrificed by exsanguinations and then the thorax was opened and the aorta dissected. Aortic ring preparations (4 mm in length) were set up in physiological salt solution (PSS) at 37° C. in small organ chambers (5 ml). The composition of PSS was (mM): NaCl 130, NaHCO3 14.9, KH2PO4 1.2, MgSO4 1.2, HEPES 10, CaCl2, ascorbic acid […] and glucose 1.1 (95% O2/5% CO2; pH 7.4). Each ring was mounted under 2 g passive tension. Isometric tension was recorded with a Grass transducer (Grass FT03) attached to a BIOPAC MP150 System. Preparations were allowed to equilibrate for 1 h, and then contracted submaximally with noradrenaline (NA, 1 μM) and, when the contraction was stable, acetylcholine (ACh, 10 μM) was added. A relaxant response to ACh indicated the presence of a functional endothelium. […] When a stable precontraction was reached, a cumulative concentration-response curve to either of the vasorelaxant agents was obtained in the presence of a functional endothelium. Each arterial ring was exposed to only one combination of inhibitor and vasorelaxant. […]
Examples 32 and 48 were evaluated for vessel relaxation.

Structure (SMILES): CCOc1nc2cccc(C(=O)OC(C)OC(=O)OCCC(C)CCO/N=[N+](\[O-])N(C)C(C)(C)C)c2n1Cc1ccc(-c2ccccc2-c2nnn[nH]2)cc1 (centres unmarked) [Example 32, O^2-(5-{[(1-{[(2-ethoxy-1-{[2′-(1H-tetrazol-5-yl)biphenyl-4-yl]methyl}-1H-benzimidazol-7-yl)carbonyl]oxy}ethoxy)carbonyl]oxy}-3-methylpentyl) 1-(N-tert-butylmethylamino)diazen-1-ium-1,2-diolate]
- EC50: 46 µM

Structure (SMILES): CCOc1nc2cccc(C(=O)OC(C)OC(=O)O[C@H](C)CCCCO/N=[N+](\[O-])N(C)C(C)(C)C)c2n1Cc1ccc(-c2ccccc2-c2nnn[nH]2)cc1 (stereo partly drawn) [Example 48, O^2-[(5R)-5-{[(1-{[(2-ethoxy-1-{[2′-(1H-tetrazol-5-yl)biphenyl-4-yl]methyl}-1H-benzimidazol-7-yl)carbonyl]oxy}ethoxy)carbonyl]oxy}hexyl] 1-(N-tert-butylmethylamino)diazen-1-ium-1,2-diolate]
- EC50: > 100 µM
